# Experiments:
# Type in all cases: in vivo
# C57B⅙ mice = assay: Blood chemistry, weight and histopathology of treated C57B⅙ mice
# Method: […] A range of doses was administered. Control animals received vehicle alone. The effect of quinazoline derivatives on total cholesterol, LDL, HDL, liver enzymes, and glucose was analyzed. The mice tissues were also examined histologically.
# (§1) Serum levels alanine aminotransferase (ALT), alkaline phosphatase (ALP), lactate dehydrogenase (LDH), blood urea nitrogen (BUN), creatinine, creatinine phosphokinase (CPK), and glucose were determined by using a Synchron CX5 Clinical System (Beckman Instruments, Inc., Fullerton, Calif.) following manufacturer's instructions. For the glucose tolerance test, blood glucose levels were determined using the portable One Touch Profile glucose meter (Lifescan, Milpitas, Calif., USA).
# (§2) At the end of the experiment, the animals were sacrificed and the harvested tissues were fixed in 10% phosphate buffered formalin overnight, embedded, sectioned, and stained by hematoxylin and eosin (H&E). The stained sections were examined for pathological changes. For Oil Red O staining, the liver was excised and snap frozen in liquid nitrogen. Five micrometer thick sections were obtained using the LeicaCM1800 cryostat (Heerbrugg, Switzerland), stained in 0.5% Oil Red O in propylene glycol for 1 hour, destained in 85% propylene glycol for 1 minute, rinsed twice in distilled water, counterstained in Mayer's hematoxylin for a few seconds, rinsed twice in distilled water, and mounted in Crystalmount (Biomedia Corp., Foster City, Calif.). The Oil Red O stainable material at 400 X magnification was quantitated using the ImagePro plus program (Media Cybernetics, Silver Spring, Md., USA) in conjunction with a 3CCD camera (DAGE-MTI Inc., Michigan City, USA).
# apo e−/− mice [1] = assay: Blood chemistry and histopathology of treated apo e−/− mice; conditions: 8 mg/kg/day or 40 mg/kg/day
# Method: Animals were treated with test compounds by intraperitoneal injection daily for 7 days. A range of doses was administered. Control animals received vehicle alone. The effect of quinazoline derivatives on total cholesterol, LDL, HDL, liver enzymes, and glucose was analyzed. The mice tissues were also examined histologically.
# as §1, §2
# apo e−/− mice [2] = assay: Regression of pre-existing atherosclerotic lesions (Sudan IV stained aortas) in apo e−/− mice; conditions: apo e−/− mice 7 months on Western diet, 40mg/kg/day for one month
# Text: Aortas from untreated (FIG. 6A), vehicle treated (FIG. 6B), and WHI-P164 treated (FIG. 6C) animals were stained with Sudan IV to show the fatty streaks. Aortas of untreated control mice were obtained at 7 months to reflect the pretreatment condition of the test groups. Aortas of vehichle treated or WHI-P164 treated test mice were obtained at 8 months following a one month treatment program. Statistical comparisons indicate **p=0.002 for untreated controls versus WHI-P164 treated test mice and p=0.007 for vehicle controls versus WHI-P164 treated mice.
# The effectiveness of WHI-P164 against pre-existing atherosclerotic lesions in apo e^−/− mice kept 7 months on high fat Western diet was examined. apo e^−/− mice were treated with either vehicle control or WHI-P164 at 40mg/kg/day for one month. […] Treatment with WHI-P164 caused a marked regression of the atherosclerotic lesions with fatty streaks covering only 23±2% (n=7) of the aortic surface (FIG. 6B), as compared to 40±5% in untreated mice (n=3) (FIG. 6A) (p=0.002) and 40±5% in the vehicle-treated mice (n=8) (FIG. 6C) (p=0.007).
# [3] = C57B⅙ mice, indicated dose levels
smiles,measurement,setting,value
"COc1cc2ncnc(C(=O)c3cccc(Br)c3)c2cc1OC [WHI-P164, 4-(3′-bromobenzoyl)-6,7-dimethoxyquinazoline]",Histopathologic examination of tissues,C57B⅙ mice; [3],did not reveal any drug related toxic lesions
same,"Liver enzymes (ALT, ALP, LDH) and BUN/Creatinine",C57B⅙ mice; [3],remained within normal limits
same,Clinical or laboratory signs of toxicity,"C57B⅙ mice; C57B⅙ mice, indicated dose levels (1.6-16 mg/kg/day)",not associated with any obvious clinical or laboratory signs of toxicity
same,ALP,"C57B⅙ mice; treated C57B1/6 mice, 1 week",101 ± 3 IU/L
same,BUN,"C57B⅙ mice; treated C57B1/6 mice, 1 week",25.4 ± 2.0 mg/dL
same,Glucose,"C57B⅙ mice; treated C57B1/6 mice, 1 week",201 ± 18 mg/dL
same,LD-L,"C57B⅙ mice; treated C57B1/6 mice, 1 week",1402 ± 144 IU/L
same,Net weight change,"C57B⅙ mice; treated C57B1/6 mice, 1 week",-0.26 ± 0.22 g
same,ALP,"C57B⅙ mice; treated C57B1/6 mice, 2 weeks",94 ± 10 IU/L
same,ALT,"C57B⅙ mice; treated C57B1/6 mice, 2 weeks",148 ± 54 IU/L
same,LD-L,"C57B⅙ mice; treated C57B1/6 mice, 2 weeks",459 ± 83 IU/L
same,Net weight change,"C57B⅙ mice; treated C57B1/6 mice, 2 weeks",1.88 ± 0.42 g
same,Clinical or laboratory signs of toxicity,apo e−/− mice [1],not associated with any obvious clinical or laboratory signs of toxicity
same,Histopathologic examination of tissues,apo e−/− mice [1],did not reveal any drug related toxic lesions
same,"Liver enzymes (ALT, AST, ALP, LDH), CPK levels, and BUN/Creatinine",apo e−/− mice [1],remained within normal limits
same,Aortic surface covered by fatty streaks stainable by Sudan IV,apo e−/− mice [2],23±2%

# Reference: patent publication US6410545B1, “Lipid lowering quinazoline dietary supplement composition” (Parker Hughes Institute, priority 1998, dated 2002)
